Reference: the NIST ThermoML archive (doi:10.1021/je0501843)
Values joined by “and” are separate entries in the source; they are usually repeats but may differ in a detail not shown here. Equal entries are not always repeated. ± gives the expanded uncertainty stated by the source.

Experiment: molar heat capacity at constant volume
Conditions: Fluid (supercritical or subcritical phases), Vacuum adiabatic calorimetry

FC(F)C(F)(F)F [pentafluoroethane]
Conditions	molar heat capacity at constant volume
357 K, Mass density=974.4 kg/m3	107.52 ± 2.2 J/K/mol and 108.27 ± 2.2 J/K/mol
357 K, Mass density=1075.8 kg/m3	106.52 ± 2.1 J/K/mol and 106.05 ± 2.1 J/K/mol
358 K, Mass density=403.6 kg/m3	111.56 ± 2.2 J/K/mol
358 K, Mass density=503 kg/m3	112.47 ± 2.3 J/K/mol
358 K, Mass density=585.6 kg/m3	118.73 ± 2.4 J/K/mol and 110.52 ± 2.2 J/K/mol
358 K, Mass density=688.4 kg/m3	115.42 ± 2.3 J/K/mol
358 K, Mass density=773.6 kg/m3	113.91 ± 2.3 J/K/mol
358 K, Mass density=882.2 kg/m3	110.62 ± 2.2 J/K/mol
358 K, Mass density=974.3 kg/m3	107.37 ± 2.2 J/K/mol and 108.93 ± 2.2 J/K/mol
358 K, Mass density=1075.7 kg/m3	105.71 ± 2.1 J/K/mol and 106.8 ± 2.1 J/K/mol
359 K, Mass density=403.6 kg/m3	112.17 ± 2.3 J/K/mol
359 K, Mass density=503 kg/m3	112.71 ± 2.3 J/K/mol
359 K, Mass density=585.6 kg/m3	120.73 ± 2.4 J/K/mol and 110.01 ± 2.2 J/K/mol
359 K, Mass density=688.3 kg/m3	114.6 ± 2.3 J/K/mol
359 K, Mass density=773.6 kg/m3	112.66 ± 2.3 J/K/mol
359 K, Mass density=882.2 kg/m3	109.41 ± 2.2 J/K/mol
359 K, Mass density=974.3 kg/m3	106.84 ± 2.1 J/K/mol and 107.68 ± 2.2 J/K/mol
359 K, Mass density=1075.6 kg/m3	105.11 ± 2.1 J/K/mol and 106.04 ± 2.1 J/K/mol
360 K, Mass density=403.6 kg/m3	111.06 ± 2.2 J/K/mol
360 K, Mass density=503 kg/m3	113.85 ± 2.3 J/K/mol
360 K, Mass density=585.6 kg/m3	119.64 ± 2.4 J/K/mol and 111.46 ± 2.2 J/K/mol
360 K, Mass density=688.3 kg/m3	115.44 ± 2.3 J/K/mol
360 K, Mass density=773.5 kg/m3	113.01 ± 2.3 J/K/mol
360 K, Mass density=882.1 kg/m3	109.1 ± 2.2 J/K/mol
360 K, Mass density=974.2 kg/m3	106.66 ± 2.1 J/K/mol and 107.71 ± 2.2 J/K/mol
360 K, Mass density=1075.5 kg/m3	106.19 ± 2.1 J/K/mol and 105.87 ± 2.1 J/K/mol
361 K, Mass density=403.6 kg/m3	110.42 ± 2.2 J/K/mol
361 K, Mass density=503 kg/m3	112.26 ± 2.3 J/K/mol
361 K, Mass density=585.6 kg/m3	116.41 ± 2.3 J/K/mol and 111.57 ± 2.2 J/K/mol
361 K, Mass density=688.3 kg/m3	115.6 ± 2.3 J/K/mol
361 K, Mass density=773.5 kg/m3	113.86 ± 2.3 J/K/mol
361 K, Mass density=882.1 kg/m3	110.89 ± 2.2 J/K/mol
361 K, Mass density=974.1 kg/m3	107.11 ± 2.1 J/K/mol and 108.37 ± 2.2 J/K/mol
361 K, Mass density=1075.4 kg/m3	106.59 ± 2.1 J/K/mol
362 K, Mass density=403.6 kg/m3	109.78 ± 2.2 J/K/mol
362 K, Mass density=503 kg/m3	111.4 ± 2.2 J/K/mol
362 K, Mass density=585.6 kg/m3	117.98 ± 2.4 J/K/mol and 110.73 ± 2.2 J/K/mol
362 K, Mass density=688.2 kg/m3	115.95 ± 2.3 J/K/mol
362 K, Mass density=773.4 kg/m3	112.71 ± 2.3 J/K/mol
362 K, Mass density=882 kg/m3	110.8 ± 2.2 J/K/mol
362 K, Mass density=974 kg/m3	107.3 ± 2.2 J/K/mol and 108.22 ± 2.2 J/K/mol
362 K, Mass density=1075.3 kg/m3	106.09 ± 2.1 J/K/mol
363 K, Mass density=403.6 kg/m3	109.94 ± 2.2 J/K/mol
363 K, Mass density=503 kg/m3	114.16 ± 2.3 J/K/mol
363 K, Mass density=585.5 kg/m3	120.74 ± 2.4 J/K/mol and 110.36 ± 2.2 J/K/mol
363 K, Mass density=688.2 kg/m3	116.44 ± 2.3 J/K/mol
363 K, Mass density=773.4 kg/m3	110.53 ± 2.2 J/K/mol
363 K, Mass density=881.9 kg/m3	110.61 ± 2.2 J/K/mol
363 K, Mass density=974 kg/m3	106.41 ± 2.1 J/K/mol and 108.02 ± 2.2 J/K/mol
363 K, Mass density=1075.2 kg/m3	106.37 ± 2.1 J/K/mol
364 K, Mass density=403.6 kg/m3	111.1 ± 2.2 J/K/mol
364 K, Mass density=503 kg/m3	113.42 ± 2.3 J/K/mol
364 K, Mass density=585.5 kg/m3	119.4 ± 2.4 J/K/mol and 109.88 ± 2.2 J/K/mol
364 K, Mass density=688.2 kg/m3	114.69 ± 2.3 J/K/mol
364 K, Mass density=773.3 kg/m3	110.71 ± 2.2 J/K/mol
364 K, Mass density=881.9 kg/m3	110.79 ± 2.2 J/K/mol
364 K, Mass density=973.9 kg/m3	106.7 ± 2.1 J/K/mol and 108.1 ± 2.2 J/K/mol
364 K, Mass density=1075.1 kg/m3	106.31 ± 2.1 J/K/mol
365 K, Mass density=403.6 kg/m3	108.67 ± 2.2 J/K/mol
365 K, Mass density=503 kg/m3	111.49 ± 2.2 J/K/mol
365 K, Mass density=585.5 kg/m3	117.96 ± 2.4 J/K/mol and 110.02 ± 2.2 J/K/mol
365 K, Mass density=688.1 kg/m3	115.26 ± 2.3 J/K/mol
